Columns and labels:
Type in all cases: in vivo
Phakopsora pachyrhizi [1] = experiment: Curative control of soy bean rust on soy beans; details: 32 ppm active compound, soy bean seedlings sprayed after inoculation, assessed after 14 days; untreated plants 100%
Method: (§1) This mixture was added to 25 mg of the compound to give a total of 5 mL. Water was then added to total volume of 100 mL. This stock solution was diluted with the described solvent-emulsifier-water mixture to the given concentration.
II.1) Curative Control of Soy Bean Rust on Soy Beans Caused by Phakopsora pachyrhizi
Leaves of pot-grown soy bean seedlings were inoculated with spores of Phakopsora pachyrhizi. To ensure the success of the artificial inoculation, the plants were transferred to a humid chamber with a relative humidity of about 95% and 20 to 24° C. for 24 hours. The next day the plants were cultivated for 3 days in a greenhouse chamber at 23 to 27° C. and a relative humidity between 60 and 80%. Then the plants were sprayed to run-off with an aqueous suspension, containing the concentration of active ingredient or their mixture as described below. The plants were allowed to air-dry. Then the trial plants were cultivated for 14 days in a greenhouse chamber at 23 to 27° C. and a relative humidity between 60 and 80%. The extent of fungal attack on the leaves was visually assessed as % diseased leaf area.

Puccinia recondite = experiment: Curative control of brown rust on wheat; details: 32 ppm active compound, wheat seedlings sprayed after inoculation, assessed after 8 days; untreated plants 90%
Method: as §1
II.3) Curative Control of Brown Rust on Wheat Caused by Puccinia Recondite
The first two developed leaves of pot-grown wheat seedling were dusted with spores of Puccinia recondite. To ensure the success the artificial inoculation, the plants were transferred to a humid chamber without light and a relative humidity of 95 to 99% and 20 to 24° C. for 24 hours. The next day the plants were cultivated for 3 days in a greenhouse chamber at 20 to 24° C. and a relative humidity between 65 and 70%. Then the plants were sprayed to run-off with an aqueous suspension, containing the concentration of active ingredient or their mixture as described below. The plants were allowed to air-dry. Then the trial plants were cultivated for 8 days in a greenhouse chamber at 20 to 24° C. and a relative humidity between 65 and 70%. The extent of fungal attack on the leaves was visually assessed as % diseased leaf area.

Phakopsora pachyrhizi [2] = experiment: Protective control of soy bean rust on soy beans; details: 32 ppm active compound, soy bean seedlings sprayed 2 days before inoculation, assessed after fourteen days; untreated plants 100%
Method: as §1
II.2) Protective Control of Soy Bean Rust on Soy Beans Caused by Phakopsora pachyrhizi
Leaves of pot-grown soy bean seedlings were sprayed to run-off with an aqueous suspension, containing the concentration of active ingredient or their mixture as described below. The plants were allowed to air-dry. The trial plants were cultivated for 2 day in a greenhouse chamber at 23 to 27° C. and a relative humidity between 60 and 80%.Then the plants were inoculated with spores of Phakopsora pachyrhizi. To ensure the success the artificial inoculation, the plants were transferred to a humid chamber with a relative humidity of about 95% and 20 to 24° C. for 24 hours. The trial plants were cultivated for fourteen days in a greenhouse chamber at 23 to 27° C. and a relative humidity between 60 and 80%. The extent of fungal attack on the leaves was visually assessed as % diseased leaf area.

O=C(NC12CC(C1)C2)c1ccc(-c2noc(C(F)(F)F)n2)cc1 [Ex-1, N-(1-bicyclo[1.1.1]pentanyl)-4-[5-(trifluoromethyl)-1,2,4-oxadiazol-3-yl]benzamide]
diseased leaf area (Phakopsora pachyrhizi [1]): 0%
diseased leaf area (Puccinia recondite): 2%
diseased leaf area (Phakopsora pachyrhizi [2]): 0%
